Laboratory results reported in patent publication US8577617B2, “Metabolic phenotyping” (priority 2002, dated 2013).

Tested on: male Sprague-Dawley rats
Type: in vivo
Settings: 200 mg/kg i.p., individual animals 101-110
Experimental: Dosing was on the day designated as ‘day 1’ when the growing rats were each approximately 250 g in mass. Isoniazid (from Sigma, France) was dissolved in physiological saline and dosed by intraperitoneal injection at either 200 mg/kg or at 400 mg/kg; ten animals (nos. 101-110) received the low dose and ten animals (nos. 201-210) received the high dose. Ten control animals (nos. 1-10) received an intraperitoneal injection of saline.
It was intended that post-dose blood samples would be taken immediately before euthanasia with euthanasia being immediately followed by sampling for histopathology. As in Example 1, the intention was that five of each group of ten rats would be euthanased by means of CO2 at one day after dosing thereby providing early blood and histopathology samples; the remainder were to be euthanased by the same technique at seven days after dosing thereby providing late blood and histopathology samples. It was planned that the early-euthanased rats would be numbers 6-10, 106-110 and 206-210 whilst the late-euthanased rats would be numbers 1-5, 101-105 and 201-205. […] The urine samples were deep-frozen pending NMR analysis. […]

NNC(=O)c1ccncc1 [isoniazid]
Premature Death?: No
